Results: patent EP4095134A1, “POLYCYCLIC COMPOUNDS FOR THE TREATMENT OF NEUROLOGICAL INDICATIONS” (UCL Business Ltd, priority 2021, dated 2022)

Target: T1, P2Y1 receptor (Homo sapiens, UniProt P47900)
T1 construct: expressed in transfected cells
Assay: P2Y1 IP1 accumulation HTRF assay, antagonism of agonist MRS2365 in stably transfected cells
Assay type: cell-based
Details: 5nM MRS2365, values rounded to nearest whole number
Protocol: IC50 values were determined using a cell based assay in stably transfected cells overexpressing the P2Y1 receptor. The assay system is a […] (HTRF) assay measuring accumulation of the intracellular messenger inositol monophosphate (IP1), generated intracellularly following activation of P2Y1. Activity of test compounds was generated by measuring antagonism of the increase in IP1 generated by addition of a selective P2Y1 agonist, MRS2365.
P2Y1 overexpressing cells were maintained in T175 flasks. The day before the assay, these cells were split and 20µl cell suspension transferred to each well of white 384-well assay plates at a cell density of 0.5x10^6 cells/mL. Plates were pulse centrifuged, then incubated overnight at 37°C / 5% CO2 prior to assay.
On day of assay, medium was removed from cells and replaced with stimulation buffer. Compounds were prepared in 100% DMSO for addition to cells using the Tecan D300e digital dispenser; compounds were prepared in cassette heads and added directly to wells in the required concentration range, to give a 10-point concentration response curve from 10µM with semi-log dilutions and a final DMSO concentration of 0.1%. Positive control antagonist curves with standard compounds were included on each plate. Plates were incubated with antagonists for 1 hour prior to addition of 5nM of the agonist MRS2365, dispensed using a Bravo liquid handler. Following agonist addition, plates were incubated for 60 minutes prior to assay. Both incubations were carried out at 37°C / 5% CO2.
For the assay, IP1 accumulation was quantified using the IPOne kit according to manufacturer's instructions. In short, a standard curve was prepared for IP 1 quantification, and cells lysed using kit lysis buffer. Assay reagents were added to the lysates, and incubated for 1 hour at room temperature without spinning or shaking. Plates were analysed on a BMG Pherastar plate reader, and IP1 signal generated in cells interpolated from the standard curve.
For all reported results, N is greater than or equal to 4. An individual N refers to one assay run with a single weighing of compound. A minimum of two assay runs were performed for each of two independent weighings of compound. Results (racemic)

T1 sequence (P47900 whole entry): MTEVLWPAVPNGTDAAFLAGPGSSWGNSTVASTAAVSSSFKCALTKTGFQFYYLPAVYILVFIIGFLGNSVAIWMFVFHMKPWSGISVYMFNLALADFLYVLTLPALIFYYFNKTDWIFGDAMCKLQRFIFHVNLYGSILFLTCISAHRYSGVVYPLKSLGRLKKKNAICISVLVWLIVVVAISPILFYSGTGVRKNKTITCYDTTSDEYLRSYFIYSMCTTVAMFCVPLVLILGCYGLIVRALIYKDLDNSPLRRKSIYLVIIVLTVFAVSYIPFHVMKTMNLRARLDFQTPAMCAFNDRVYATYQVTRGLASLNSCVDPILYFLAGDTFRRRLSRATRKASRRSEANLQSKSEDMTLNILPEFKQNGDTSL

SMILES | IC50 (racemic, N >= 4) [nM] | IC50 (single enantiomer) [nM]
Cc1ccc(NC(=O)Nc2ccc(OC(F)(F)F)cc2F)c(Oc2ccccc2[C@@]2(C(F)(F)F)CCO2)n1 [S113] |  | 34
O=C(Nc1cccnc1Oc1ccccc1[C@@]1(C(F)(F)F)CCO1)Nc1ccc(Cl)c(F)c1F [S108] |  | 125
Cc1ccc(NC(=O)Nc2ccc(OC3CC(F)(F)C3)cc2)c(Oc2ccccc2C2(C(F)(F)F)CCO2)n1 (racemic) [S15, 1-(4-(3,3-difluorocyclobutoxy)phenyl)-3-(6-methyl-2-(2-(2-(trifluoromethyl)oxetan-2-yl)phenoxy)pyridin-3-yl)urea] | 105 | 
O=C(Nc1ccc(Cl)cn1)Nc1cccnc1Oc1ccccc1C1(C(F)(F)F)CCO1 (racemic) [S46, 1-(5-chloropyridin-2-yl)-3-(2-(2-(2-(trifluoromethyl)oxetan-2-yl)phenoxy)pyridin-3-yl)urea] | 384 | 
O=C(Nc1cccnc1Oc1ccccc1C1(C(F)(F)F)CCO1)NC1CC2(CC2)C1 (racemic) [S74] | 2140 | 
O=C(Nc1ccc(OC(F)(F)F)cc1)Nc1cccnc1Oc1cccc(C2(C(F)(F)F)CCO2)c1 (racemic) [S90, 1-(4-(trifluoromethoxy)phenyl)-3-(2-(3-(2-(trifluoromethyl)oxetan-2-yl)phenoxy)pyridin-3-yl)urea] | 322 | 
O=C(Nc1ccc(F)cc1)Nc1cccnc1Oc1ccccc1C1(C(F)(F)F)CCO1 (racemic) [S53, 1-(4-fluorophenyl)-3-(2-(2-(2-(trifluoromethyl)oxetan-2-yl)phenoxy)pyridin-3-yl)urea] | 522 | 
O=C(Nc1ccc(C(F)F)cc1)Nc1cccnc1Oc1ccccc1C1(C(F)(F)F)CCO1 (racemic) [S39, 1-(4-(difluoromethyl)phenyl)-3-(2-(2-(2-(trifluoromethyl)oxetan-2-yl)phenoxy)pyridin-3-yl)urea] | 259 | 
Cc1ccc(NC(=O)Nc2ccc(Cl)cc2F)c(Oc2ccccc2[C@]2(C(F)(F)F)CCO2)n1 (racemic) [S109] |  | 126
O=C(Nc1ccc(S(F)(F)(F)(F)F)cc1)Nc1cccnc1Oc1ccccc1C1(C(F)(F)F)CCO1 (racemic) [S28, 1-(4-(pentafluoro-λ^6-sulfaneyl)phenyl)-3-(2-(2-(2-(trifluoromethyl)oxetan-2-yl)phenoxy)pyridin-3-yl)urea] | 157 | 
O=C(Nc1ccc(OC(F)(F)F)cc1)Nc1cccnc1Oc1cccc(C2COC2)c1 (racemic) [S92] | 2790 | 
O=C(Nc1ccc(OC2CC(F)(F)C2)cc1)Nc1cccnc1Oc1ccccc1C1(C(F)(F)F)CCO1 (racemic) [S36, 1-(4-(3,3-difluorocyclobutoxy)phenyl)-3-(2-(2-(2-(trifluoromethyl)oxetan-2-yl)phenoxy)pyridin-3-yl)urea] | 207 | 
O=C(Nc1ccc(OC(F)(F)F)cc1)Nc1cccnc1Oc1ccccc1[C@@]1(C(F)(F)F)CCO1 [S110] |  | 68
N#Cc1ccc(NC(=O)Nc2cccnc2Oc2ccccc2C2(C(F)(F)F)CCO2)cc1 (racemic) [S79, 1-(4-cyanophenyl)-3-(2-(2-(2-(trifluoromethyl)oxetan-2-yl)phenoxy)pyridin-3-yl)urea] | 3170 | 
O=C(Nc1ccc(OC(F)(F)F)cc1F)Nc1cccnc1Oc1ccccc1[C@@]1(C(F)(F)F)CCO1 [S112] |  | 38
Cc1ccc(NC(=O)Nc2ccc(OC(F)(F)F)cc2F)c(Oc2ccccc2[C@]2(C(F)(F)F)CCO2)n1 (racemic) [S104] |  | 68
COc1ncc(NC(=O)Nc2cccnc2Oc2ccc(F)cc2C2(C(F)(F)F)CCO2)cc1F (racemic) [S68, 1-(2-(4-fluoro-2-(2-(trifluoromethyl)oxetan-2-yl)phenoxy)pyridin-3-yl)-3-(5-fluoro-6-methoxypyridin-3-yl)urea] | 1330 | 
Cc1cc2nc(Nc3cccnc3Oc3ccc(F)cc3C3(C(F)(F)F)CCO3)[nH]c2cc1C (racemic) [S120] | 1240 | 
FC(F)c1nnc(Nc2cccnc2Oc2ccccc2C2(C(F)(F)F)CCO2)s1 (racemic) [S82] | 4530 | 
Cc1cccc(Oc2ncccc2NC(=O)Nc2ccc(OC(F)(F)F)cc2)c1C1COC1 (racemic) [S88] | 1160 | 

Continued, in another order:

IC50 (racemic, N >= 4) [nM] | SMILES | IC50 (single enantiomer) [nM]
549 | Cc1ccc(NC(=O)Nc2ccc(F)cn2)c(Oc2ccc(F)cc2C2(C(F)(F)F)CCO2)n1 (racemic) [S54, 1-(2-(4-fluoro-2-(2-(trifluoromethyl)oxetan-2-yl)phenoxy)-6-methylpyridin-3-yl)-3-(5-fluoropyridin-2-yl)urea] | 
473 | COc1ccc(NC(=O)Nc2cccnc2Oc2ccccc2C2(C(F)(F)F)CCO2)c(F)c1 (racemic) [S51, 1-(2-fluoro-4-methoxyphenyl)-3-(2-(2-(2-(trifluoromethyl)oxetan-2-yl)phenoxy)pyridin-3-yl)urea] | 
152 | O=C(Nc1ccc(OC(F)(F)F)cc1)Nc1cccnc1Oc1ccc(F)cc1C1(C(F)(F)F)CCO1 (racemic) [S26, 1-(2-(4-fluoro-2-(2-(trifluoromethyl)oxetan-2-yl)phenoxy)pyridin-3-yl)-3-(4-(trifluoromethoxy)phenyl)urea] | 
348 | COc1ccc(F)c(NC(=O)Nc2ccc(C)nc2Oc2ccccc2C2(C(F)(F)F)CCO2)c1 (racemic) [S44, 1-(2-fluoro-5-methoxyphenyl)-3-(6-methyl-2-(2-(2-(trifluoromethyl)oxetan-2-yl)phenoxy)pyridin-3-yl)urea] | 
165 | O=C(Nc1ccc(Cl)cc1F)Nc1cccnc1Oc1ccccc1C1(C(F)(F)F)CCO1 (racemic) [S29, 1-(4-chloro-2-fluorophenyl)-3-(2-(2-(2-(trifluoromethyl)oxetan-2-yl)phenoxy)pyridin-3-yl)urea] | 
50 | Cc1ccc(NC(=O)Nc2ccc(OC(F)(F)F)cc2)c(Oc2ccccc2C2(C(F)(F)F)CCN2C)n1 (racemic) [S6] | 
768 | O=C(Nc1cc2c(cc1F)OCO2)Nc1cccnc1Oc1ccccc1C1(C(F)(F)F)CCO1 (racemic) [S61, 1-(6-fluorobenzo[d][1,3]dioxol-5-yl)-3-(2-(2-(2-(trifluoromethyl)oxetan-2-yl)phenoxy)pyridin-3-yl)urea] | 
179 | O=C(Nc1ccc(OC(F)(F)F)cc1)Nc1cccnc1Oc1ccc(F)cc1C1(C(F)(F)F)CCO1 (racemic) [S33] | 
64 | O=C(Nc1ccc(OC(F)(F)F)cc1)Nc1cccnc1Oc1ccccc1C1(C(F)(F)F)CCN1Cc1ccccc1 (racemic) [S8] | 
500 | [2H]C([2H])([2H])Oc1ccc(NC(=O)Nc2cccnc2Oc2ccccc2C2(C(F)(F)F)CCO2)c(F)c1 (racemic) [S52, 1-(2-fluoro-4-(methoxy-d3)phenyl)-3-(2-(2-(2-(trifluoromethyl)oxetan-2-yl)phenoxy)pyridin-3-yl)urea] | 
5580 | Cn1c(C(F)F)nc2ccc(NC(=O)Nc3cccnc3Oc3ccccc3C3(C(F)(F)F)CCO3)cc21 (racemic) [S85, 1-(2-(difluoromethyl)-1-methyl-1H-benzo[d]imidazol-6-yl)-3-(2-(2-(2-(trifluoromethyl)oxetan-2-yl)phenoxy)pyridin-3-yl)urea] | 
2650 | COc1ccc(NC(=O)Nc2ccc(C)nc2Oc2ccc(F)cc2C2(C(F)(F)F)CCO2)cn1 (racemic) [S75, 1-(2-(4-fluoro-2-(2-(trifluoromethyl)oxetan-2-yl)phenoxy)-6-methylpyridin-3-yl)-3-(6-methoxypyridin-3-yl)urea] | 
278 | O=C(Nc1cc(OC(F)(F)F)ccc1F)Nc1cccnc1Oc1ccc(F)cc1C1(C(F)(F)F)CCO1 (racemic) [S40, 1-(2-(4-fluoro-2-(2-(trifluoromethyl)oxetan-2-yl)phenoxy)pyridin-3-yl)-3-(2-fluoro-5-(trifluoromethoxy)phenyl)urea] | 
78 | CN1CCC1(c1ccccc1Oc1ncccc1NC(=O)Nc1ccc(Cl)cc1F)C(F)(F)F (racemic) [S10] | 
40 | Cc1ccc(NC(=O)Nc2ccc(OC(F)(F)F)cc2F)c(Oc2ccccc2C2(C(F)(F)F)CCN2C)n1 (racemic) [S3] | 
45 | O=C(Nc1ccc(OC(F)(F)F)cc1)Nc1cccnc1Oc1ccccc1C1(C(F)(F)F)CCN1CC1CC1 (racemic) [S116] | 
4710 | CN1C(=O)CC1(c1ccccc1Oc1ncccc1NC(=O)Nc1ccc(OC(F)(F)F)cc1)C(F)F (racemic) [S83] | 
121 | O=C(Nc1ccc(OC(F)(F)F)cc1)Nc1cccnc1Oc1ccccc1C1(C(F)F)CCN1CCF (racemic) [S118] | 
39 | CC(C)(C)CN1CCC1(c1ccccc1Oc1ncccc1NC(=O)Nc1ccc(OC(F)(F)F)cc1)C(F)(F)F (racemic) [S117] | 
118 | Cc1ccc(NC(=O)Nc2ccc(Cl)cc2)c(Oc2ccccc2C2(C(F)(F)F)CCO2)n1 (racemic) [S18, 1-(4-chlorophenyl)-3-(6-methyl-2-(2-(2-(trifluoromethyl)oxetan-2-yl)phenoxy)pyridin-3-yl)urea] | 
169 | Cc1ccc(NC(=O)Nc2ccc(Cl)cc2)c(Oc2ccc(F)cc2C2(C(F)(F)F)CCO2)n1 (racemic) [S32, 1-(4-chlorophenyl)-3-(2-(4-fluoro-2-(2-(trifluoromethyl)oxetan-2-yl)phenoxy)-6-methylpyridin-3-yl)urea] | 
